Here are results for twelve molecules from ChEMBL document CHEMBL1134918, “General solid-phase method to prepare novel cyclic ketone inhibitors of the cysteine protease cruzain” (Bioorg Med Chem Lett, 2002).

For one assay, the target named is Procathepsin L (Homo sapiens, UniProt P07711). Briefly: Affinity for human Cathepsin L.
Another assay concerns the target Cathepsin B (Homo sapiens, UniProt P07858). Put plainly: Affinity for human Cathepsin B.
The next assay addresses Cruzipain (Trypanosoma cruzi, UniProt P25779). Put plainly: Affinity for cysteine protease (Cruzipain) of Chagas' disease.

Chain of Procathepsin L (P07711 whole entry): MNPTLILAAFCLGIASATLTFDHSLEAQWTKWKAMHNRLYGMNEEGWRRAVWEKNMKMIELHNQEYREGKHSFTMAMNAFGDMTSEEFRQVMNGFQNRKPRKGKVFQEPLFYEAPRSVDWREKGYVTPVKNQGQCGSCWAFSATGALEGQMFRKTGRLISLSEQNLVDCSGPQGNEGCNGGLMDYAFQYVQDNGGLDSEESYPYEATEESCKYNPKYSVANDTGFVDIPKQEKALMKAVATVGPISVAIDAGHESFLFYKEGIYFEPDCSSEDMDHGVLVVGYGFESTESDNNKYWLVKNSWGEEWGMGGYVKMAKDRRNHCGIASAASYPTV
Chain of Cruzipain (P25779 whole entry): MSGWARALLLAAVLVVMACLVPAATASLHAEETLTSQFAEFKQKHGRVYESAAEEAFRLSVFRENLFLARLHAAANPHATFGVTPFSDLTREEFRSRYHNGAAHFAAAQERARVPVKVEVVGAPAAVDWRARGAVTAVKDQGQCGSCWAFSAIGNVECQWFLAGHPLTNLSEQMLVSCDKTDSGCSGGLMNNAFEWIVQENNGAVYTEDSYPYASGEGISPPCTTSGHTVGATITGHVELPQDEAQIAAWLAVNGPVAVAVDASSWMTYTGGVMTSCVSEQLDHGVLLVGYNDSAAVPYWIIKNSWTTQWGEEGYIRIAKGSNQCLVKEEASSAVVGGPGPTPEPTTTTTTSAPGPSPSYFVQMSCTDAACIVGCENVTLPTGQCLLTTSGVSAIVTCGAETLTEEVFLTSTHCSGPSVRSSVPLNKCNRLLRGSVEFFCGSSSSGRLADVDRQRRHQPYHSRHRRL

In the case of `O=C(N[C@@H](Cc1ccccc1)C(=O)NC1CC(=O)N(CCc2ccccc2)CC1=O)OCc1ccccc1` (stereo in doubt; 4f), the Ki at Procathepsin L is 93 nM; at Cathepsin B it was 6170 nM; at Cruzipain, 53 nM.

Consider `CC(C)C[C@H](NC(=O)OCc1ccccc1)C(=O)NC1CN(C(=O)[C@H](CC(C)C)NC(=O)OCc2ccccc2)CC1=O` (stereo partly specified), for which the Ki at Cathepsin B was more than 1000 nM.

On Cruzipain, `O=C(N[C@@H](Cc1ccccc1)C(=O)NC1CC(=O)N(CCc2ccccc2)CC1=O)OCc1ccccc1` (stereo in doubt) came in with a Ki of 53.2 nM.

`O=C(N[C@@H](Cc1ccccc1)C(=O)NC1CC(=O)N(CCCc2ccccc2)CC1=O)OCc1ccccc1` (stereo in doubt) registered a Ki at Cruzipain of 16.3 nM.

Take `O=C(N[C@@H](Cc1ccccc1)C(=O)NC1CC(=O)N(Cc2ccccc2)CC1=O)OCc1ccccc1` (stereo in doubt; 4g): the figures for the Ki on Procathepsin L, on Cathepsin B and on Cruzipain were 377 nM, 13200 nM and 202 nM, respectively.

Consider `CC(C)CN1CC(=O)C(NC(=O)[C@H](Cc2ccccc2)NC(=O)OCc2ccccc2)CC1=O` (stereo partly specified), for which the results for the Ki at Procathepsin L, at Cathepsin B and on Cruzipain were 299 nM, 4550 nM and 274 nM, respectively.

With `COCCN1CC(=O)C(NC(=O)[C@H](Cc2ccccc2)NC(=O)OCc2ccccc2)CC1=O` (stereo partly specified), the Ki was 865 nM at Procathepsin L, more than 10000 nM on Cathepsin B and 983 nM at Cruzipain.

Consider `CC(C)N1CC(=O)C(NC(=O)[C@H](Cc2ccccc2)NC(=O)OCc2ccccc2)CC1=O` (stereo partly specified), for which the Ki at Procathepsin L turned out to be 597 nM; on Cathepsin B it was 12900 nM; at Cruzipain, 384 nM.

Regarding `O=C(N[C@@H](Cc1ccccc1)C(=O)NC1CC(=O)N(Cc2ccccc2)CC1=O)OCc1ccccc1` (stereo in doubt), the affinity at Cruzipain corresponds to a Ki of 202 nM.

As to `CCCN1CC(=O)C(NC(=O)[C@H](Cc2ccccc2)NC(=O)OCc2ccccc2)CC1=O` (stereo partly specified), the Ki on Procathepsin L turned out to be 232 nM; at Cathepsin B it was 10500 nM; at Cruzipain it was 366 nM.

With `CC(C)C[C@@H](C(=O)NCC(=O)CNS(=O)(=O)c1ccc(Oc2ccccc2)cc1)c1cccc(-c2ccccc2)c1`, at Cathepsin B, the Ki is more than 10000 nM.

With `O=C(N[C@@H](Cc1ccccc1)C(=O)NC1CC(=O)N(CCCc2ccccc2)CC1=O)OCc1ccccc1` (stereo in doubt; 4e), the Ki at Procathepsin L was found to be 19 nM; on Cathepsin B, 693 nM; at Cruzipain it was 16 nM.
